Paper PMC7305075 (Cancer Chemotherapy and Pharmacology, 2020)
Like-named read-outs stand apart in the source and are kept apart here.

How the values were obtained:
[1] = Plasma pharmacokinetics of paracetamol, paracetamol glucuronide and paracetamol sulphate in rats (HPLC-UV, non-compartmental); format: in vivo, Wistar rats; details: for Cmax / ka (absorption rate constant): plasma, mean ± SD (CV %)
Experimental: The experimental protocol assuming involvement of animals in this study was reviewed and approved by the Local Ethics Committee, Poznań, Poland (no 61/2017). All procedures were performed in accordance with the European Union regulations concerning the handling and use of laboratory animals. Adult male Wistar rats (weight 480–530 g) were used in the study. The animals were maintained under standard breeding conditions with a 12/12 h light–dark cycle (lights on at 06.00, lights off at 18.00) at constant room temperature (23 ± 2 °C), relative humidity of 55 ± 10% and given ad libitum access to food and water. The animals were allowed to acclimatise for a week before the beginning of the experiments. The rats were divided into three groups. […] To make sure that the animals received the entire dose of the drug, 1 mL of 10% DMSO was then administered to rinse the probe. 100 µL of blood was collected from each rat by cutting off a piece of his tail. The blood samples were collected into heparinised test tubes at the following time points: 0, 0.5, 1, 2, 3, 4, 5, 6, 7, 8, 10, 12, 24, 30, 48, 72, 96 h. […] All the blood samples were centrifuged at 2.880 g for 10 min at 4 °C.
Separation was achieved by isocratic elution of the mobile phase, comprising sodium sulphate 0.05 M pH 2.2 (adjusted with 85% orthophosphoric acid) and acetonitrile (93:7, v/v), at a flow rate of 1.0 mL/min through an BDS Hypersil® C18 column (150 mm × 4.6 mm, 5.0 μm particle size) (Thermo Electron Corporation®, Waltham, MA, USA). The total time of analysis for each run was 10 min. The column temperature was maintained at 25 °C, the UV detection wavelength was set at 254 nm and the injection volume was 50 μL. Theophylline was used as the internal standard (IS).
The maximum plasma concentration (Cmax) and the time to reach the Cmax (tmax) were derived directly from the observed plasma concentrations. The total area under the concentration–time curve (AUC) was estimated by the trapezoidal rule with extrapolation from time zero to infinity (AUC0-∞). The elimination half-life (t0.5) was estimated from ln2/kel. The apparent plasma drug clearance (Cl/F) was calculated by dividing the dose (D) by the AUC0-∞. The apparent volume of distribution (Vd/F) was estimated from D/(kel × AUC0-∞).

[2] = system: UGT2B15; design: method as in Liu et al. [26]; details: in vitro, recombinant UDP-glucuronyl transferases and liver microsomes, paracetamol glucuronidation; ref Liu et al. [26]; cited from earlier work
[3] = system: UGT1A9; details: cited from earlier work
[4] = cited from earlier work
[5] = system: UGT1A1; details: in vitro studies; ref [21]; cited from earlier work
[6] = in vitro study; ref [42]; cited from earlier work
[7] = design: method as in Karbownik et al. [36]–[38]; details: in vivo; ref Karbownik et al. [36]–[38]; cited from earlier work
[8] = design: method as in Karbownik et al. [36], [37]; details: ref Karbownik et al. [36], [37]; cited from earlier work
[9] = Plasma pharmacokinetics of sorafenib and sorafenib N-oxide in rats (HPLC-UV, non-compartmental); format: in vivo, Wistar rats; details: mean ± SD (CV %)
Experimental: The experimental protocol assuming involvement of animals in this study was reviewed and approved by the Local Ethics Committee, Poznań, Poland (no 61/2017). All procedures were performed in accordance with the European Union regulations concerning the handling and use of laboratory animals. Adult male Wistar rats (weight 480–530 g) were used in the study. The animals were maintained under standard breeding conditions with a 12/12 h light–dark cycle (lights on at 06.00, lights off at 18.00) at constant room temperature (23 ± 2 °C), relative humidity of 55 ± 10% and given ad libitum access to food and water. The animals were allowed to acclimatise for a week before the beginning of the experiments. The rats were divided into three groups. […] To make sure that the animals received the entire dose of the drug, 1 mL of 10% DMSO was then administered to rinse the probe. 100 µL of blood was collected from each rat by cutting off a piece of his tail. The blood samples were collected into heparinised test tubes at the following time points: 0, 0.5, 1, 2, 3, 4, 5, 6, 7, 8, 10, 12, 24, 30, 48, 72, 96 h. […]
The maximum plasma concentration (Cmax) and the time to reach the Cmax (tmax) were derived directly from the observed plasma concentrations. […] The apparent plasma drug clearance (Cl/F) was calculated by dividing the dose (D) by the AUC0-∞. […]

[10] = cited from earlier work; remark: listed apart in the source
[11] = design: method as in PMID 26739624; details: ref [24], cited from earlier work
[12] = IS+PA group (with sorafenib) vs. IIIPA group
[13] = single oral paracetamol 100 mg/kg b.w. + sorafenib 100 mg/kg b.w. (IS+PA group)
[14] = single oral paracetamol 100 mg/kg b.w. alone (IIIPA group)
[15] = in vitro, recombinant UDP-glucuronyl transferases and liver microsomes, paracetamol glucuronidation, ref Liu et al. [26]
[16] = analogous dose (100 mg/kg) orally, ref Mekjaruskul et al. [35]
[17] = single dose 100 mg/kg orally, ref Pingili et al. [34]

Compound: CC(=O)Nc1ccc(O[C@@H]2O[C@H](C(=O)O)[C@@H](O)[C@H](O)[C@H]2O)cc1 [Paracetamol glucuronide, paracetamol glucuronide]
- decrease in AUC0-∞ [1, 12]: 42%
- reduction in Cmax [1, 12]: 48%
- Cmax [1, 13]: 19830 ng/mL
- Cmax [1, 14]: 38380 ng/mL

Compound: Cc1nc(Nc2ncc(C(=O)Nc3c(C)cccc3Cl)s2)cc(N2CCN(CCO)CC2)n1 [dasatinib]
- inhibition of UGT2B15 [2]: inhibited
- inhibition of UGT1A9 [3, 15]: inhibited

Compound: CNC(=O)c1cc(Oc2ccc(NC(=O)Nc3ccc(Cl)c(C(F)(F)F)c3)cc2)ccn1 [Sorafenib]
- Cmax ([4]; ref Wang [27]): 230.86 ng/mL
- tmax ([4]; ref Wang [27]): 8.14 h
- Cmax ([4]; ref Wang [39]): 338 ng/mL
- inhibition of UGT1A1 [5]: particularly inhibits
- inhibition of UGT2B15 [2]: inhibited
- binding to human plasma proteins [6]: 99.8%
- inhibition of UGT1A9 ([3]; in vitro studies, ref [21]): particularly inhibits
- inhibition of UGT1A9 [3, 15]: inhibited

Compound: C#Cc1cccc(Nc2ncnc3cc(OCCOC)c(OCCOC)cc23)c1 [erlotinib]
- decrease of the AUC0-∞ of paracetamol after administration of the TKI [7]: 35.5%
- drop of the Cmax of paracetamol after administration of the TKI [7]: 18.9%
- increase in AUC0-t of the TKI on co-administration with paracetamol [8]: 31%
- increase in Cmax of the TKI on co-administration with paracetamol [8]: 88%

Compound: CS(=O)(=O)CCNCc1ccc(-c2ccc3ncnc(Nc4ccc(OCc5cccc(F)c5)c(Cl)c4)c3c2)o1 [lapatinib]
- decrease of the AUC0-∞ of paracetamol after administration of the TKI [7]: 48.8%
- drop of the Cmax of paracetamol after administration of the TKI [7]: 55.7%
- increase in AUC0-t of the TKI on co-administration with paracetamol [8]: 240%
- increase in Cmax of the TKI on co-administration with paracetamol [8]: 184%

Compound: CNC(=O)c1cc(Oc2ccc(NC(=O)Nc3ccc(Cl)c(C(F)(F)F)c3)cc2)cc[n+]1[O-] [Sorafenib N-oxide, sorafenib N-oxide]
- tmax [9, 13]: 15.5 h
- tmax ([9]; single oral sorafenib 100 mg/kg b.w. alone (IIS group)): 16.3 h

Compound: CCN(CC)CCNC(=O)c1c(C)[nH]c(/C=C2\C(=O)Nc3ccc(F)cc32)c1C [sunitinib]
- decrease of the AUC0-∞ of paracetamol after administration of the TKI [7]: 68.19%
- drop of the Cmax of paracetamol after administration of the TKI [7]: 63.95%

Compound: CC(=O)Nc1ccc(O)cc1 [Paracetamol]
- Cmax [10, 16]: 19100 ng/mL
- t0.5 [10, 16]: 21.29 min
- tmax [10, 16]: 1.0 h
- Cmax [10, 17]: 5040 ng/mL
- t0.5 [10, 17]: 266 min
- tmax [10, 17]: 1.16 h
- fraction conjugated with cysteine ([11]; metabolism in the liver): 3%
- fraction conjugated with glucuronic acid ([11]; metabolism in the liver): 60%
- fraction conjugated with sulphuric acid ([11]; metabolism in the liver): 30%
- fraction N-hydroxylated through cytochrome P-450 (CYP2E1) to NAPQI [11]: 5–10%
- increase in AUC0-∞ [1, 12]: 71%
- increase in Cmax [1, 12]: 33%
- ka (absorption rate constant) [1, 13]: 2.09 ± 1.11 h⁻¹
- ka (absorption rate constant) [1, 14]: 2.35 ± 0.99 h⁻¹
